# Read-outs that look alike come from different tables or passages of the source.
# Tests used:
# [1] = system: sigma band EEG power during NREM sleep; test: EEG/PSG: sigma band EEG power during NREM sleep; assay type: in vivo, human; conditions: 20 mg tablet and 40 mg tablet (FIG. 12)
# [2] = Food effect (high-fat, high-calorie meal) on pharmacokinetics, single 20 mg dose; assay type: in vivo, human; conditions: for Tmax / AUC(0-t) / AUC(0-inf) / Cmax: human, plasma, 20 mg; for Tmax: oral, single 20 mg; for AUC(0-t) / AUC(0-inf) / Cmax: po
# Method: The effect of a high-fat, high-calorie meal on the pharmacokinetics of a compound of formula (II) was evaluated in an open-label, sequential fashion following a single 20 mg dose of formulation 5 in participants who had previously received a 20 mg dose of formulation 5 under fasted conditions.
# hCav3.1 = target: T1, hCav3.1 (Homo sapiens, UniProt O43497); test: PatchXpress patch clamp, voltage dependent block (half-inactivated state); assay type: cell-based
# T1 construct: expressed in transfected cells; host or cells: HEK-293
# hCav3.3 = target: T2, hCav3.3 (Homo sapiens, UniProt Q9P0X4); test: as above; assay type: cell-based
# T2 construct: expressed in transfected cells; host or cells: HEK-293
# [3] = Within-participant escalating dose trial Part A: safety and tolerability; assay type: in vivo, human; conditions: N = 8
# Method: In Part A, an open label trial was conducted.
# [4] = Phase 1 SAD/MAD safety and tolerability of formulation 3; assay type: in vivo, human; conditions: single 60 mg without titration, 6 healthy volunteers
# Method: This was a 2-part, Phase 1 double blind, placebo controlled trial to assess the safety, tolerability, pharmacokinetics, and pharmacodynamics (including the KSS, the KDT, the SQSQ and 24-hour EEG recordings), of single, ascending (Part A: 20, 40, and 60 mg) and multiple, ascending (Part B: 20 and 40 mg for 8 days) doses of the 20 mg tablet (formulation 3) in healthy participants. […] Variability in Cmax and AUC increased with increasing dose following a single oral dose of the 20 mg tablet formulation (formulation 3) (FIG. 16).
# Adverse events for the doses of 20 and 40 mg were transient and occurred at a rate similar to placebo. The following TEAEs were observed, all of which were mild to moderate: […]
# [5] = Within-participant escalating dose trial Part B (20-120 mg titration): pharmacokinetics; conditions: titrated dosing schedule
# Method: Each participant completed 3 study periods: Screening, Treatment period (12 or 31 days), and Safety follow-up.
# Participants were healthy males and females between the ages of 18 and 55 years old.
# In Part B, a randomized controlled trial was conducted.
# [6] = system: adult patients with essential tremor; test: Example 16: Clinical Global Impression (CGI-I, CGI-S); assay type: in vivo, human; conditions: for participants with CGI-I much improved / participants with CGI-I score reflecting no change in symptoms: Part B OLT
# Text: Patients were scheduled for Safety Follow-up on Day 70 (±1 day) in the clinic for the final clinical trial assessment.
# [7] = Part B RWD (RWAS), Day 56, n 6, change from randomization baseline
# [8] = Part B RWD (RWAS), Day 70, n 5, change from randomization baseline
# T1 sequence (O43497 whole entry): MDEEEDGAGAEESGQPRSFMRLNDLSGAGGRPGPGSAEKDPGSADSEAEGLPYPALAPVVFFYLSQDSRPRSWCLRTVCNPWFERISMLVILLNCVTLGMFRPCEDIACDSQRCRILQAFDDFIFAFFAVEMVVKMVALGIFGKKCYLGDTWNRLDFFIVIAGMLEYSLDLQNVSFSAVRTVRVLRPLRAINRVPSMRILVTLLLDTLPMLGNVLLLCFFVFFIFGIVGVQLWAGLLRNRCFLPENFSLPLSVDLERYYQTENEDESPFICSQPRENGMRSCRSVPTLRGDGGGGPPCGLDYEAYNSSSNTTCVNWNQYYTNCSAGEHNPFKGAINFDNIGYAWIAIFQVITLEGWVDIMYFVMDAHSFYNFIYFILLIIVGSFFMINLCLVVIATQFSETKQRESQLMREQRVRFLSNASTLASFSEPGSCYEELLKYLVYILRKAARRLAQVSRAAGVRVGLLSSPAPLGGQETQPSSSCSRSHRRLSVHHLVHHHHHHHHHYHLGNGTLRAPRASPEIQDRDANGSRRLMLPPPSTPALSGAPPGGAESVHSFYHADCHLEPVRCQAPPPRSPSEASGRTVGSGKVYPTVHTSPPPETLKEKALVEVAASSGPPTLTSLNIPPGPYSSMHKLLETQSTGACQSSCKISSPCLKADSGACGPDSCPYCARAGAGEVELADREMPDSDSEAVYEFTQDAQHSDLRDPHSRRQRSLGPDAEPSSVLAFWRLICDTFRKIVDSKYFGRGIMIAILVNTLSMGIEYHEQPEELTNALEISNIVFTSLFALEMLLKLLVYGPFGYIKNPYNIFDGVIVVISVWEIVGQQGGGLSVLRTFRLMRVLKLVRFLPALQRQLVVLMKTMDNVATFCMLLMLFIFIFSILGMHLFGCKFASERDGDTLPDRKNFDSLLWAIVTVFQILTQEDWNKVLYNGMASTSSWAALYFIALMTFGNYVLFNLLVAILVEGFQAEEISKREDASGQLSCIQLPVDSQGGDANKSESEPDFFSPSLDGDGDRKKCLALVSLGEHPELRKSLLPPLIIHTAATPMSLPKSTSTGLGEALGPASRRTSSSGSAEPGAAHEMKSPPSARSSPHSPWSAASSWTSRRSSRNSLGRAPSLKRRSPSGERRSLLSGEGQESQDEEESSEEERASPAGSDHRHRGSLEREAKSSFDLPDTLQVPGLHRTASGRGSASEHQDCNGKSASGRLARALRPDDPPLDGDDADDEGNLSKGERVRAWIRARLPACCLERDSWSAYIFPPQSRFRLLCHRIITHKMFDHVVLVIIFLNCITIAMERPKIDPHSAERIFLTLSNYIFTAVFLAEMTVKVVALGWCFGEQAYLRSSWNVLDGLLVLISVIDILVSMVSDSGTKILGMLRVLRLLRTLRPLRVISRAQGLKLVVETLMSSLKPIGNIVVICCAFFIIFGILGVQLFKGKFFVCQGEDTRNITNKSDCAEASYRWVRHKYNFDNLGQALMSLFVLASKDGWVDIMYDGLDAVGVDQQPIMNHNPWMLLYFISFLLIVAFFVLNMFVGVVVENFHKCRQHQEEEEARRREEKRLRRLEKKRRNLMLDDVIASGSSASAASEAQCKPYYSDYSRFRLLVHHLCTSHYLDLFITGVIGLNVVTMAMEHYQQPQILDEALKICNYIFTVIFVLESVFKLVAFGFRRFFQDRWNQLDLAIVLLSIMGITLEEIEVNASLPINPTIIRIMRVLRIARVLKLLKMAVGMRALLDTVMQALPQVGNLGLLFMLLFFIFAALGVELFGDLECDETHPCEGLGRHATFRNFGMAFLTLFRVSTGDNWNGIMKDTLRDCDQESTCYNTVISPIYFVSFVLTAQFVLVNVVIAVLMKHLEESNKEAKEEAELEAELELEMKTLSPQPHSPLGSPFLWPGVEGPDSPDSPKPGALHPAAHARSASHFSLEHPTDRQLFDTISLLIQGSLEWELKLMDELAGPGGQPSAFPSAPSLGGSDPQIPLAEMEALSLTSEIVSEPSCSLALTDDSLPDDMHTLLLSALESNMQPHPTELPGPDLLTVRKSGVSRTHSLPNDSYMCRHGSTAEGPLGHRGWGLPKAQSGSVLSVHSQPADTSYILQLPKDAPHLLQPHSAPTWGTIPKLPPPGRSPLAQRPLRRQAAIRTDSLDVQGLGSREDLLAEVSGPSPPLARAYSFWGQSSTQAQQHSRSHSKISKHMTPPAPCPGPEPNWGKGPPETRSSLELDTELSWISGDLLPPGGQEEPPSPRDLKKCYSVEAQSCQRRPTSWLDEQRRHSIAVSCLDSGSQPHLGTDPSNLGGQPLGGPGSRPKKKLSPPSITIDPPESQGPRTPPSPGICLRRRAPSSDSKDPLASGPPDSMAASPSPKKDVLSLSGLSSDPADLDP
# T2 sequence (Q9P0X4 whole entry): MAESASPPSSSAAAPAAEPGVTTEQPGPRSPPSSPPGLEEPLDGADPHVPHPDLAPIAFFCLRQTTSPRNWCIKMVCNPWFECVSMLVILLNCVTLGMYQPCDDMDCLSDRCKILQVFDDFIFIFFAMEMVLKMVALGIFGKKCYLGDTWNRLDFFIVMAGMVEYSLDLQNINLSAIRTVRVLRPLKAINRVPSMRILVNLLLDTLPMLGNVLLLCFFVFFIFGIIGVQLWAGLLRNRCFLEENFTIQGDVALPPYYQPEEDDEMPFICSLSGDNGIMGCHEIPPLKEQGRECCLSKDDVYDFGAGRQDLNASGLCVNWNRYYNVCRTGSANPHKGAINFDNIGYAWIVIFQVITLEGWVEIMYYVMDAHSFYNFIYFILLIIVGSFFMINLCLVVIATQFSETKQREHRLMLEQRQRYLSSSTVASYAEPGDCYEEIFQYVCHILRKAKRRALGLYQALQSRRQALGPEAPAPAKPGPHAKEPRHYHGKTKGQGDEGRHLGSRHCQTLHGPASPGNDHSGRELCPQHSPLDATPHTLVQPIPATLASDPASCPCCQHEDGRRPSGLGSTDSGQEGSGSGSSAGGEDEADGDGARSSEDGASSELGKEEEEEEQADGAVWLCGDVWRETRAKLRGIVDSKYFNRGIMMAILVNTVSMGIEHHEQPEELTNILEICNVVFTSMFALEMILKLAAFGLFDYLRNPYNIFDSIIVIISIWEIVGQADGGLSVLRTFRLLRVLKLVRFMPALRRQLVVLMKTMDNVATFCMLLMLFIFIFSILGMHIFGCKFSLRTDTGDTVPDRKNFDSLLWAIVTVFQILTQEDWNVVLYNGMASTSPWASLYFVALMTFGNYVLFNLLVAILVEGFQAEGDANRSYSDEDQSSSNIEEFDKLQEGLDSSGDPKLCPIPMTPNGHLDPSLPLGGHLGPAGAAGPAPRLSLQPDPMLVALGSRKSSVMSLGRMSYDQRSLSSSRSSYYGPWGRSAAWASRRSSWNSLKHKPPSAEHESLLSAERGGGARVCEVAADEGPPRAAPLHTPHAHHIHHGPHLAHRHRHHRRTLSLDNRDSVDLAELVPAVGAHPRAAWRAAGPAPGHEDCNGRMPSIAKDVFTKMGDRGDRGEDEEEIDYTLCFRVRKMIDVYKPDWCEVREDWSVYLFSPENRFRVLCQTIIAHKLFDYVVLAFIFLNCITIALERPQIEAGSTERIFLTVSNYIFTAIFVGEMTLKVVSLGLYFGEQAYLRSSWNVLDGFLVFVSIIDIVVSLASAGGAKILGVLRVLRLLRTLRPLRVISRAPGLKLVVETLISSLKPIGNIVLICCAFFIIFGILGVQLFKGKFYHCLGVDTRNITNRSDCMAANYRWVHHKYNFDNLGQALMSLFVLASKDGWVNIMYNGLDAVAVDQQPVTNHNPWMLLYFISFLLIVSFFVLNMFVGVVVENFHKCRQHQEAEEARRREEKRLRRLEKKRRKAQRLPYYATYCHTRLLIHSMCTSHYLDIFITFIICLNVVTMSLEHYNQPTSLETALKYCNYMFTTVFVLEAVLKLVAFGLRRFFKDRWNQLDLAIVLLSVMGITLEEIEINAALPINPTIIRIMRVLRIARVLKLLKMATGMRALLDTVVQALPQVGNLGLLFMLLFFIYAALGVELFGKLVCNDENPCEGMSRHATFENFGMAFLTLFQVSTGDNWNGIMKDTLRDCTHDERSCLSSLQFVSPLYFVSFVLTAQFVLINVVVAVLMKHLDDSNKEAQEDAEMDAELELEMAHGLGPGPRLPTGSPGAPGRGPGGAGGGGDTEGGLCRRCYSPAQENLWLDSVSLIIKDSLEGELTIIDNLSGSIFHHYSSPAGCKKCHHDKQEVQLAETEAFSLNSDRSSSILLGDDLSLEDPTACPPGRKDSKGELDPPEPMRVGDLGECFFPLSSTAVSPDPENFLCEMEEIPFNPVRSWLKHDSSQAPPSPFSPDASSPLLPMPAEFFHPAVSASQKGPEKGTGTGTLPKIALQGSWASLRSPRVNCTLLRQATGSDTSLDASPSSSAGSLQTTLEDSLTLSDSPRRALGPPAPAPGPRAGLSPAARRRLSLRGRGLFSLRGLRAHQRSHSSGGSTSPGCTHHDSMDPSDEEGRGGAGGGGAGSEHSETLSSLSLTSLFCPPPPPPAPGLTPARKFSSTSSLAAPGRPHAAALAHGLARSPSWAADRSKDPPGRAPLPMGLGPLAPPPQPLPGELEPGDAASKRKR
compound,measurement,setting,value
"CC(C)(C)NC(=O)CN1CCC(CNC(=O)c2cc(F)cc(Cl)c2)CC1.Cl [compound of formula (II), N-((1-(2-(tert-butylamino)-2-oxoethyl)piperidin-4-yl)methyl)-3-chloro-5-fluorobenzamide hydrochloride]",NREM sigma band compared to placebo control,[1],decrease
same,Tmax,[2]; fasted,4 h
same,Tmax,"[2]; high-fat, high-calorie meal",5 h
same,AUC(0-t),"[2]; single 20 mg oral dose, fasted, read-out: AUClast, Fasted Geometric Mean (Adjusted)",905 ng·h/mL
same,AUC(0-inf),"[2]; single 20 mg oral dose, fasted, read-out: AUC∞, Fasted Geometric Mean (Adjusted)",942 ng·h/mL
same,Cmax,"[2]; single 20 mg oral dose, fasted, read-out: Cmax, Fasted Geometric Mean (Adjusted)",43.6 ng/mL
same,AUC(0-t),"[2]; single 20 mg oral dose, high-fat/high-calorie meal, read-out: AUClast, Fed Geometric Mean (Adjusted)",1040 ng·h/mL
same,AUC(0-inf),"[2]; single 20 mg oral dose, high-fat/high-calorie meal, read-out: AUC∞, Fed Geometric Mean (Adjusted)",1080 ng·h/mL
same,Cmax,"[2]; single 20 mg oral dose, high-fat/high-calorie meal, read-out: Cmax, Fed Geometric Mean (Adjusted)",64.7 ng/mL
same,AUClast Ratio (fed/fasted),[2]; single 20 mg oral dose,1.14
same,AUC∞ Ratio (fed/fasted),[2]; single 20 mg oral dose,1.15
same,Cmax Ratio (fed/fasted),[2]; single 20 mg oral dose,1.49
same,tonic block/voltage dependent block (TB/VDB) ratio,hCav3.1,3.8
same,tonic block/voltage dependent block (TB/VDB) ratio,hCav3.3,4.0
"CC(C)(C)NC(=O)CN1CCC(CNC(=O)c2cc(F)cc(Cl)c2)CC1 [compound of formula (I), N-((1-(2-(tert-butylamino)-2-oxoethyl)piperidin-4-yl)methyl)-3-chloro-5-fluorobenzamide]",Dry eye,[3]; 5 mg,1 (12.5%) n (%)
same,Eye disorders,[3]; 5 mg,2 (25.0%) n (%)
same,General Disorders and Administration Site Conditions,[3]; 5 mg,3 (37.5%) n (%)
same,Headache,[3]; 5 mg,2 (25.0%) n (%)
same,Lethargy,[3]; 5 mg,1 (12.5%) n (%)
same,Medical device site dermatitis,[3]; 5 mg,1 (12.5%) n (%)
same,Nervous System Disorders,[3]; 5 mg,2 (25.0%) n (%)
same,Participants with at least one TEAE,[3]; 5 mg,5 (62.5%) n (%)
same,Vessel puncture site thrombosis,[3]; 5 mg,1 (12.5%) n (%)
same,Dry eye,[3]; 10 mg,2 (25.0%) n (%)
same,Eye disorders,[3]; 10 mg,2 (25.0%) n (%)
same,General Disorders and Administration Site Conditions,[3]; 10 mg,3 (37.5%) n (%)
same,Headache,[3]; 10 mg,0 n (%)
same,Lethargy,[3]; 10 mg,0 n (%)
same,Medical device site dermatitis,[3]; 10 mg,2 (25.0%) n (%)
same,Nervous System Disorders,[3]; 10 mg,0 n (%)
same,Participants with at least one TEAE,[3]; 10 mg,5 (62.5%) n (%)
same,Vessel puncture site thrombosis,[3]; 10 mg,1 (12.5%) n (%)
same,Dry eye,[3]; 20 mg,0 n (%)
same,Eye disorders,[3]; 20 mg,0 n (%)
same,General Disorders and Administration Site Conditions,[3]; 20 mg,1 (12.5%) n (%)
same,Headache,[3]; 20 mg,1 (12.5%) n (%)
same,Medical device site dermatitis,[3]; 20 mg,0 n (%)
same,Nervous System Disorders,[3]; 20 mg,1 (12.5%) n (%)
same,Participants with at least one TEAE,[3]; 20 mg,3 (37.5%) n (%)
same,Vessel puncture site thrombosis,[3]; 20 mg,0 n (%)
same,Dry eye,[3]; Overall 5-20 mg,3 (37.5%) n (%)
same,Eye disorders,[3]; Overall 5-20 mg,3 (37.5%) n (%)
same,Headache,[3]; Overall 5-20 mg,3 (37.5%) n (%)
same,Lethargy,[3]; Overall 5-20 mg,2 (25.0%) n (%)
same,Medical device site dermatitis,[3]; Overall 5-20 mg,3 (37.5%) n (%)
same,Nervous System Disorders,[3]; Overall 5-20 mg,3 (37.5%) n (%)
same,Participants with at least one TEAE,[3]; Overall 5-20 mg,7 (87.5%) n (%)
same,Vessel puncture site thrombosis,[3]; Overall 5-20 mg,2 (25.0%) n (%)
same,tolerability,[4],not tolerated
same,increase of Cmax and AUC24 above values of a lower dosage not tolerated without titration,[5],2-3 fold
same,CGI-I Score 0 not assessed,"[6]; Part A (FAS), Day 7, n 6",0 n (%)
same,CGI-I Score 1 very much improved,"[6]; Part A (FAS), Day 7, n 6",0 n (%)
same,CGI-I Score 2 Much improved,"[6]; Part A (FAS), Day 7, n 6",1 n (%)
same,CGI-I Score 3 minimally improved,"[6]; Part A (FAS), Day 7, n 6",1 (16.7) n (%)
same,CGI-I Score 4 no change,"[6]; Part A (FAS), Day 7, n 6",4 (66.7) n (%)
same,CGI-I Score 5 minimally worse,"[6]; Part A (FAS), Day 7, n 6",0 n (%)
same,CGI-I Score 6 much worse,"[6]; Part A (FAS), Day 7, n 6",0 n (%)
same,CGI-I Score 7 very much worse,"[6]; Part A (FAS), Day 7, n 6",0 n (%)
same,CGI-I Score 0 not assessed,"[6]; Part A (FAS), Day 14, n 6",0 n (%)
same,CGI-I Score 1 very much improved,"[6]; Part A (FAS), Day 14, n 6",0 n (%)
same,CGI-I Score 2 Much improved,"[6]; Part A (FAS), Day 14, n 6",1 n (%)
same,CGI-I Score 3 minimally improved,"[6]; Part A (FAS), Day 14, n 6",5 (83.3) n (%)
same,CGI-I Score 4 no change,"[6]; Part A (FAS), Day 14, n 6",0 n (%)
same,CGI-I Score 5 minimally worse,"[6]; Part A (FAS), Day 14, n 6",0 n (%)
same,CGI-I Score 6 much worse,"[6]; Part A (FAS), Day 14, n 6",0 n (%)
same,CGI-I Score 7 very much worse,"[6]; Part A (FAS), Day 14, n 6",0 n (%)
same,participants with CGI-I score not changed relative to pre-dose baseline,"[6]; Part A, Day 7",66.7%
same,participants with CGI score minimally improved,"[6]; Part A, Day 14",83.3%
same,participants with CGI score much improved,"[6]; Part A, Day 14",16.7%
same,CGI-I Score 0 not assessed,"[6]; Part B OLT (FAS), Day 7, n 12",1 (8.3) n (%)
same,CGI-I Score 1 very much improved,"[6]; Part B OLT (FAS), Day 7, n 12",0 n (%)
same,CGI-I Score 2 Much improved,"[6]; Part B OLT (FAS), Day 7, n 12",1 n (%)
same,CGI-I Score 3 minimally improved,"[6]; Part B OLT (FAS), Day 7, n 12",5 (41.7) n (%)
same,CGI-I Score 4 no change,"[6]; Part B OLT (FAS), Day 7, n 12",4 (33.3) n (%)
same,CGI-I Score 5 minimally worse,"[6]; Part B OLT (FAS), Day 7, n 12",1 (8.3) n (%)
same,CGI-I Score 6 much worse,"[6]; Part B OLT (FAS), Day 7, n 12",0 n (%)
same,CGI-I Score 7 very much worse,"[6]; Part B OLT (FAS), Day 7, n 12",0 n (%)
same,CGI-I Score 0 not assessed,"[6]; Part B OLT (FAS), Day 21, n 12",0 n (%)
same,CGI-I Score 1 very much improved,"[6]; Part B OLT (FAS), Day 21, n 12",1 (8.3) n (%)
same,CGI-I Score 2 Much improved,"[6]; Part B OLT (FAS), Day 21, n 12",1 n (%)
same,CGI-I Score 3 minimally improved,"[6]; Part B OLT (FAS), Day 21, n 12",5 (41.7) n (%)
same,CGI-I Score 4 no change,"[6]; Part B OLT (FAS), Day 21, n 12",5 (41.7) n (%)
same,CGI-I Score 5 minimally worse,"[6]; Part B OLT (FAS), Day 21, n 12",0 n (%)
same,CGI-I Score 6 much worse,"[6]; Part B OLT (FAS), Day 21, n 12",0 n (%)
same,CGI-I Score 7 very much worse,"[6]; Part B OLT (FAS), Day 21, n 12",0 n (%)
same,CGI-I Score 0 not assessed,"[6]; Part B OLT (FAS), Day 42, n 11",0 n (%)
same,CGI-I Score 1 very much improved,"[6]; Part B OLT (FAS), Day 42, n 11",0 n (%)
same,CGI-I Score 2 Much improved,"[6]; Part B OLT (FAS), Day 42, n 11",4 n (%)
same,CGI-I Score 3 minimally improved,"[6]; Part B OLT (FAS), Day 42, n 11",4 (36.4) n (%)
same,CGI-I Score 4 no change,"[6]; Part B OLT (FAS), Day 42, n 11",3 (27.3) n (%)
same,CGI-I Score 5 minimally worse,"[6]; Part B OLT (FAS), Day 42, n 11",0 n (%)
same,CGI-I Score 6 much worse,"[6]; Part B OLT (FAS), Day 42, n 11",0 n (%)
same,CGI-I Score 7 very much worse,"[6]; Part B OLT (FAS), Day 42, n 11",0 n (%)
same,participants with CGI-I much improved,[6]; Day 7,8.3%
same,participants with CGI-I score reflecting no change in symptoms,[6]; Day 7,33.3%
same,participants with CGI-I much improved,[6]; Day 42,36.4%
same,participants with CGI-I score reflecting no change in symptoms,[6]; Day 42,27.3%
same,CGI-I Score 0 not assessed,[6]; [7],0 n (%)
same,CGI-I Score 1 very much improved,[6]; [7],0 n (%)
same,CGI-I Score 2 Much improved,[6]; [7],0 n (%)
same,CGI-I Score 3 minimally improved,[6]; [7],1 (16.7) n (%)
same,CGI-I Score 4 no change,[6]; [7],5 (83.3) n (%)
same,CGI-I Score 5 minimally worse,[6]; [7],0 n (%)
same,CGI-I Score 6 much worse,[6]; [7],0 n (%)
same,CGI-I Score 7 very much worse,[6]; [7],0 n (%)
same,CGI-I Score 0 not assessed,[6]; [8],0 n (%)
same,CGI-I Score 1 very much improved,[6]; [8],0 n (%)
same,CGI-I Score 2 Much improved,[6]; [8],0 n (%)
same,CGI-I Score 3 minimally improved,[6]; [8],0 n (%)
same,CGI-I Score 4 no change,[6]; [8],4 (80.0) n (%)
same,CGI-I Score 5 minimally worse,[6]; [8],1 (20.0) n (%)
same,CGI-I Score 6 much worse,[6]; [8],0 n (%)
same,CGI-I Score 7 very much worse,[6]; [8],0 n (%)
